3 molecules from article PMC5291163 (Journal of the American Chemical Society, 2016) can be followed below.

Each structure is given as a SMILES string. Where two headings read alike, the source gives them in different places. Square brackets hold non-standard residues; d marks the D form. Peptide text beside a SMILES is read from it. * marks the point of attachment. Pentanoyl(5-PPh3+) = O=C(CCCC[P+](c1ccccc1)(c1ccccc1)c1ccccc1)*; d(pY) = N[C@H](Cc1ccc(OP(=O)(O)O)cc1)C(=O)O; pY = N[C@@H](Cc1ccc(OP(=O)(O)O)cc1)C(=O)O; NBD = O=[N+]([O-])c1ccc(*)c2nonc12; Cbz = O=C(OCc1ccccc1)*; βAla = NCCC(=O)O; CH2F = FC*

The subject of data set [1] is Saos2 cells.
Data set [2] deals with HS5 cells. As to conditions: 100 µM.
Data set [3] has as its system alkaline phosphatase (ALP). The note with it: substrate 0.1 wt%, ALP 0.1 U/mL.
The subject of data set [4] is active caspase3. The note with it: Saos2 cells, 50 µM, first 3 h of treatment.
The conditions of data set [5]: ALP 1 U/mL, 24 h, PBS buffer pH 7.4.
Data set [6] can be described thus: TEM of nanostructures before and after addition of ALP. The format is physicochemical. The note with it: 100 µM, before ALP.

As for `O=C(CCCC[P+](c1ccccc1)(c1ccccc1)c1ccccc1)NCCCC[C@H](NC(=O)[C@H](Cc1ccc(OP(=O)(O)O)cc1)NC(=O)[C@H](Cc1ccccc1)NC(=O)[C@H](Cc1ccccc1)NC(=O)CCNc1ccc([N+](=O)[O-])c2nonc12)C(=O)O` [L-1P] ({NBD-βAla}-FF[pY]K(Pentanoyl(5-PPh3+))-OH), the “cell viability of unstimulated Saos2” value in data set [1] (50 µM, 48h) is 71.7%. Besides, the “cytotoxicity against HS5 cells” value in data set [2] is “almost innocuous”. Moreover, the “percentage of enzymatic dephosphorylation after 24 h” value in data set [3] is on record as around 80%. Also, in data set [3], the “t1/2 of ALP catalyzed dephosphorylation” value was 68.4 min. Besides, in data set [4], the “expression level of active caspase3 relative to untreated cells” value is reported as “changes little”. Moreover, the “increase of the SLS signal after addition of ALP” value turned out to be 120 fold in data set [5] (25 µM precursor), 48 fold in data set [5] (50 µM precursor), 18 fold in data set [5] (100 µM precursor) and 14 fold in data set [5] (200 µM precursor).
As to `O=C(CCCC[P+](c1ccccc1)(c1ccccc1)c1ccccc1)NCCCC[C@@H](NC(=O)[C@@H](Cc1ccc(OP(=O)(O)O)cc1)NC(=O)[C@@H](Cc1ccccc1)NC(=O)[C@@H](Cc1ccccc1)NC(=O)CCNc1ccc([N+](=O)[O-])c2nonc12)C(=O)O` [D-1P] ({NBD-βAla}-[dF][dF][d(pY)][dK](Pentanoyl(5-PPh3+))-OH), the “diameter of uniform nanoparticles (TEM)” value in data set [6] is 25 ±2 nm. In data set [2], the “cytotoxicity against HS5 cells” value is reported as “almost innocuous”. Further, the “percentage of enzymatic dephosphorylation after 24 h” value in data set [3] is given as “about 90%”. The “t1/2 of ALP catalyzed dephosphorylation” value in data set [3] turned out to be 33 min. Also, the “expression level of active caspase3 relative to untreated cells” value in data set [4] was “about 1.7 fold”. Further, the “increase of the SLS signal after addition of ALP” value is on record as 43 fold in data set [5] (25 µM precursor), 10 fold in data set [5] (50 µM precursor), 8 fold in data set [5] (100 µM precursor) and 4 fold in data set [5] (200 µM precursor).
For `COC(=O)C[C@H](NC(=O)[C@H](C)NC(=O)[C@@H](NC(=O)OCc1ccccc1)C(C)C)C(=O)CF` [zVAD-fmk, reference compound] (Cbz-Val-Ala-Asp(OMe)-CH2F), in data set [1] (45 µM), the “toxicity on Saos2 cells of the inhibitor itself” value is reported as “no toxicity”.
